In assay [1] the target is T1, human P-type α-amylase (Homo sapiens, UniProt P04746).
T1 construct: purchased International Reagents Corp., Japan CARIBZYME AMY
T1 sequence (P04746 16-511): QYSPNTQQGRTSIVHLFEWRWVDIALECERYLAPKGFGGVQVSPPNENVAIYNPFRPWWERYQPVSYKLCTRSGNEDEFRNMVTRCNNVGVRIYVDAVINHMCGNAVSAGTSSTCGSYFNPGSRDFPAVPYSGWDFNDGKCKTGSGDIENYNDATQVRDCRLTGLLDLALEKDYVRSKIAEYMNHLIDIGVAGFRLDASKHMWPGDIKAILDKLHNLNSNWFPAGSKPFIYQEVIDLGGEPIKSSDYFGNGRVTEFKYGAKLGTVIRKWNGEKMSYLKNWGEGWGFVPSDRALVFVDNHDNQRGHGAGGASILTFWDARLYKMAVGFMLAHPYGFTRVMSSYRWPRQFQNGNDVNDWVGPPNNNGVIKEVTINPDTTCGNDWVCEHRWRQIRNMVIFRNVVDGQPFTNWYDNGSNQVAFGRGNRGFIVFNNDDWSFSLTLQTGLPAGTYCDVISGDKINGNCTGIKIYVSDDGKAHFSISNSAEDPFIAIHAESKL
In words: Inhibition of human P-type α-amylase by an inhibitor (variable absorbance at 400 nm, chromogenic substrate, coupled enzymes). The format is biochemical. How it is done:
(§1) (a) Preparation of a mixed solution of the substrate (N3G5-CNP) and the inhibitor DOG3
(§2) N3G5-CNP and DOG3 obtained in Informative Example 2 were dissolved in a 50 mM phosphate buffer (pH 7.0) containing 40 mM NaCl and 2 mM MgCl2 so that the N3G5-CNP has a concentration of 3.25 mM (final concentration of 2.0 mM) and DOG3 has seven concentrations of 0.05, 0.11, 0.54, 1.09, 2.16, 3.25, 5.41 mM (final concentrations of 0.03, 0.07, 0.33, 0.67, 1.33, 2.00 and 3.33 mM, respectively).
(§3) The commercially available human P-type α-amylase and human S-type α-amylase were dissolved in distilled water so that they have a concentration of about 150 IU/liter.
(§4) It was prepared in the same manner as described in (b) in the section (1).
(§5) After 250 μl of the α-amylase solution was admixed with 1.0 ml of the coupled enzyme solution and warmed to 37° C. for 1 minute, 2.0 ml of each of the mixtures (having 7 concentration) of the substrate (N3G5-CNP) and the inhibitor DOG3 was added, stirred and warmed to 37° C. for 2.5 minutes, and the variable absorbance in each sample at 400 nm was measured for 2 minutes.
(§6) The activities of human P-type α-amylase and human S-type α-amylase containing 0 mM of DOG3 (without DOG3) were regarded as 100% and the relative activities of human P-type α-amylase and human S-type α-amylase in different concentrations of DOG3 were obtained from each determined value as mentioned above. In this connection, a open circle means P-type α-amylase and a closed circle means S-type α-amylase. […]
(§7) On the other hand, procedures were carried out in the same manner as described above except that 1.0 ml of the coupled enzyme solution alone was used on behalf of the mixed solution in (c) to obtain the value of T with this method.
(§8) The values of kp, ks, a and b in the wheat-germ inhibitor method were 1.1×10^-3, 1.1×10^-3, 0,262 and 0.726 as a result of the measurement. These values as well as those of T and W obtained in this method were substituted for the equations (3) and (4) to obtain the values of P and S (IU/liter). […]

In assay [2] the target is T2, human S-type α-amylase (Homo sapiens, UniProt P0DUB6).
T2 construct: purchased International Reagents Corp., Japan CARIBZYME AMY
T2 sequence (P0DUB6 16-511): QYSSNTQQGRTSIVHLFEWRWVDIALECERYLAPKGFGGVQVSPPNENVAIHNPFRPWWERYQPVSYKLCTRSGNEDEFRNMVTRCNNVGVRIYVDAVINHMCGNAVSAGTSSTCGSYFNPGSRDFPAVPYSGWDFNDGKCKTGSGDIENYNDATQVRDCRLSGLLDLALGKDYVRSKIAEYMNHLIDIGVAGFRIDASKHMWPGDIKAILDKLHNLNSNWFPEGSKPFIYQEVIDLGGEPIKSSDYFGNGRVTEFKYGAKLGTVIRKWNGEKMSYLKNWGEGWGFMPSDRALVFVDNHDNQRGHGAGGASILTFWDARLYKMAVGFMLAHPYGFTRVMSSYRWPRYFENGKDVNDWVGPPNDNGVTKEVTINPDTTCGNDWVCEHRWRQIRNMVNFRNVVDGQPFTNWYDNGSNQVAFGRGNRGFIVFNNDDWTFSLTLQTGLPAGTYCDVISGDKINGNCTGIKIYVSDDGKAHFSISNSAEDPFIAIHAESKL
Description: Inhibition of human S-type α-amylase by an inhibitor (variable absorbance at 400 nm, chromogenic substrate, coupled enzymes). The class given is biochemical. As for the experimental part: as §1, §2, §3, §4, §5, §6, §7, §8

For assay [3], the target named is T1, human P-type α-amylase. In words: Km and reaction rate constant kp of the substrate for measuring α-amylase activity, P-type. The format is biochemical. How it is done: (§9) In a 50 mM phosphate buffer (pH 7.0) containing 40 mM NaCl and 2 mM MgCl2 was dissolved N3G5-CNP obtained in Informative Example 1 to prepare substrate solutions for measuring α-amylase activity in a concentration of 0.16, 0.32, 0.48, 0.64, 0.80 and 0.96 mM.
(§10) A commercially available glucoamylase derived from Rhizopus sp. and β-glucosidase derived from almond were mixed and dissolved in a 50 mM phosphate buffer (pH 7.0) containing 40 mM NaCl and 2 mM MgCl2 to the concentration of the glucoamylase and β-glucosidase being 163 units/ml and 16.3 units/ml, respectively. In this connection, these commercially available glucoamylase and β-glucosidase used were manufactured by Toyobo Co., Ltd.
(§11) Each of commercially available human P-type α-amylase and human S-type α-amylase was dissolved in distilled water to ensure that the concentration of each amylase was about 150 IU/liter.
The commercially available human α-amylases used were CARIBZYME AMY manufactured by International Reagents Corp., Japan. […]
(§12) As for the human P-type α-amylase solution and human S-type α-amylase solution, 1.0 ml of a coupled enzyme solution was added to and stirred with 250 μl of the α-amylase solution, warmed to 37° C. for 1 minute, and 2.0 ml of each concentration of the N3G5-CNP solution was added and stirred, warmed to 37° C. for 2.5 minutes to measure the variable absorbances at 400 nm for 2 minutes. […]

In assay [4] the test system is α-amylase. Description: Km value of G5-CNP (isoenzyme not stated). As to conditions: α-glucosidase instead of glucoamylase as coupled enzyme. The format is biochemical, human. As for the experimental part: As for the human P-type α-amylase solution and human S-type α-amylase solution, 1.0 ml of a coupled enzyme solution was added to and stirred with 250 μl of the α-amylase solution, warmed to 37° C. for 1 minute, and 2.0 ml of each concentration of the N3G5-CNP solution was added and stirred, warmed to 37° C. for 2.5 minutes to measure the variable absorbances at 400 nm for 2 minutes. At the same time, a blank test was carried out with 250 μl of distilled water instead of the α-amylase solution. The measurements thus obtained were plotted by the Lineweaver-Burk method to calculate the Km value by the method of least squares.
The Km value and the reaction rate constants (kp and ks) of G5-CNP and the inhibition constants a and b of DOG3 were measured in the same manner as in Example 1 except that a commercially available G5-CNP [manufactured by Daiichi Pure Chemicals Co., Ltd.] on behalf of N3G5-CNP as the substrate for measuring α-amylase was used and 406 units/liter of α-glucosidase [manufactured by Toyobo Co., Ltd.] was used on behalf of glucoamylase as a coupled enzyme.

The target of assay [5] is T2, human S-type α-amylase. Description: Km and reaction rate constant ks of the substrate for measuring α-amylase activity, S-type. The class given is biochemical. As for the experimental part:
as §9, §10, §11
The commercially available human α-amylases used were CARIBZYME AMY manufactured by International Reagents Corp., Japan.
The molecular extinction coefficient (ε) of 2-chloro-4-nitrophenol is defined 16,100 and for α-amylase activity the amount of enzyme which decomposes 1 μmol of G5-CNP at 37° C. for a minute is defined as 1 International Unit (IU) (and so forth).
as §12
For six solutions of each of the human P-type α-amylase and the human S-type α-amylase, 1.0 ml of the coupled enzyme solution was added to and stirred with 250 μl of the α-amylase solution and warmed to 37° C. for 1 minute, respectively. 2.0 ml of N3G5-CNP solution was added and stirred, and the mixture was warmed to 37° C. for 2.5 minutes to measure the variable absorbances at 400 nm for 2 minutes. […]

Setting [6] is: α-glucosidase instead of glucoamylase as coupled enzyme.
Setting [7] is: substrate final concentration 2.0 mM, 37° C., inclination of absorbance versus activity line, glucoamylase and β-glucosidase.

With `C[C@H]1O[C@H](O[C@H]2[C@H](O)[C@@H](O)[C@@H](O[C@H]3[C@H](O)[C@@H](O)C(O)O[C@@H]3CO)O[C@@H]2CO)[C@H](O)[C@@H](O)[C@@H]1O` (stereo partly drawn) [DOG3, O-6-deoxy-α-D-glucopyranosyl-(1→4)-O-α-D-glucopyranosyl-(1→4)-D-glucose], the activity at 330 µM in assay [1] (DOG3 0.33 mM final, substrate N3G5-CNP 2.0 mM final, 37° C., pH 7.0, read-out: relative activity of human P-type α-amylase (without DOG3 = 100%)) was 13.1%; in assay [2] (DOG3 0.33 mM final, substrate N3G5-CNP 2.0 mM final, 37° C., pH 7.0, read-out: relative activity of human S-type α-amylase (without DOG3 = 100%)), 67.9%. For the same compound, in assay [1] (DOG3 0.33 mM, substrate N3G5-CNP, S-type minus P-type, as fraction), the “difference of the relative activities of P-type and S-type α-amylases (maximum)” value amounted to 0.548. Moreover, the inhibition at 500 µM was 61.7% in assay [1] (DOG3 0.50 mM, substrate G5-CNP, α-glucosidase and β-glucosidase as coupled enzymes, read-out: inhibition constant a (to P-type α-amylase)); 14.1% in assay [2] (DOG3 0.50 mM, substrate G5-CNP, α-glucosidase and β-glucosidase as coupled enzymes, read-out: inhibition constant b (to S-type α-amylase)). For the same compound, the inhibition at 330 µM in assay [1] (pH 7, DOG3 0.33 mM, substrate N3G5-CNP 2.0 mM, read-out: inhibition constant a (to P-type α-amylase) = 1 - relative activity) came out at 86.9%; in assay [2] (pH 7, DOG3 0.33 mM, substrate N3G5-CNP 2.0 mM, read-out: inhibition constant b (to S-type α-amylase) = 1 - relative activity), 32.1%.
With `O=[N+]([O-])c1ccc(O[C@@H]2O[C@H](CO)[C@@H](O[C@H]3O[C@H](CO)[C@@H](O[C@H]4O[C@H](CO)[C@@H](O[C@H]5O[C@H](CO)[C@@H](O[C@H]6O[C@H](CO)[C@@H](O)[C@H](O)[C@H]6O)[C@H](O)[C@H]5O)[C@H](O)[C@H]4O)[C@H](O)[C@H]3O)[C@H](O)[C@H]2O)c(Cl)c1` [G5-CNP, 2-chloro-4-nitrophenyl β-D-maltopentaoside, reference compound], the “reaction rate constant kp” value in assay [3] (setting [6]) is given as 1.2×10^-3. Also, in assay [4], the Km turned out to be 450 µM. The “reaction rate constant ks” value in assay [5] (setting [6]) was 1.2×10^-3.
Turning to `[N-]=[N+]=NC[C@H]1O[C@H](O[C@H]2[C@H](O)[C@@H](O)[C@@H](O[C@H]3[C@H](O)[C@@H](O)[C@@H](O[C@H]4[C@H](O)[C@@H](O)[C@@H](O[C@H]5[C@H](O)[C@@H](O)[C@H](Oc6ccc([N+](=O)[O-])cc6Cl)O[C@@H]5CO)O[C@@H]4CO)O[C@@H]3CO)O[C@@H]2CO)[C@H](O)[C@@H](O)[C@@H]1O` [N3G5-CNP, 2-chloro-4-nitro-phenyl 6^5-azido-6^5-deoxy-β-D-maltopentaoside], the “reaction rate constant kp” value in assay [3] (setting [7]) was 1.1×10^-3. The Km in assay [5] (Lineweaver-Burk, 37° C., pH 7.0, glucoamylase and β-glucosidase as coupled enzymes) amounted to 270 µM. Besides, the “reaction rate constant ks” value in assay [5] (setting [7]) is given as 1.1×10^-3.

The values are drawn from US5494804A, “Differential determination process of α-amylase isoenzyme activities” (Kikkoman Corporation, priority 1993, dated 1996).
